From patent US7767666B2, “Butyl and butynyl benzyl amine compounds” (Janssen Pharmaceutica NV, priority 2006, dated 2010)

Columns and labels:
human H3 receptor [1] = biological target: T1, human H3 receptor (Homo sapiens, UniProt Q9Y5N1); test: Cyclic AMP accumulation (β-galactosidase reporter); assay type: cell-based; conditions: for pA2: SK-N-MC cells expressing human H3 receptor and reporter, histamine agonist, forskolin 5 μM, Schild regression of pEC50 values; for Kb: read-out: pA2 (converted)
T1 construct: expressed in transfected cells
T1 sequence (Q9Y5N1 whole entry): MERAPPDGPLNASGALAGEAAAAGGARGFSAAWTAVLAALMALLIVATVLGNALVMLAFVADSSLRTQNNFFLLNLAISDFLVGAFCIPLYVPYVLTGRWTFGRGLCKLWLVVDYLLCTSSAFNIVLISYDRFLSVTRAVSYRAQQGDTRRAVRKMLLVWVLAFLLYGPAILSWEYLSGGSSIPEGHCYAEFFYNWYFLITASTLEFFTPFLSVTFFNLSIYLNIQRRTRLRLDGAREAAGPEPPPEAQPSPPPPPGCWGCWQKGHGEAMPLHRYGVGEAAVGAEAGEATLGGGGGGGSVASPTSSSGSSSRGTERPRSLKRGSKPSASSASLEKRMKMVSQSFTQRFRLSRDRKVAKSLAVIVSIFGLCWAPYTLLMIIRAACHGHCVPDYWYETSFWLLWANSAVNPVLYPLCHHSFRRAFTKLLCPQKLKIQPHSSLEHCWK
Description: Sublines of SK—N-MC cells were created that expressed a reporter construct and the human H3 receptor. The reporter gene (β-galactosidase) is under the control of multiple cyclic AMP responsive elements. In 96-well plates, histamine was added directly to the cell media followed 5 min later by an addition of forskolin (5 μM final concentration). When appropriate, antagonists were added 10 min prior to agonist addition. After a 6-h incubation at 37° C., the media was aspirated and the cells washed with 200 μL of phosphate-buffered saline followed by a second aspiration. Cells were lysed with 25 μL 0.1× assay buffer (10 mM Na-phosphate, pH 8, 0.2 mM MgSO4, 0.01 mM MnCl2) and incubated at rt for 10 min. […] Color was developed using 25 μL of 1 mg/mL substrate solution (chlorophenolred β-D galactopyranoside; Roche Molecular Biochemicals, Indianapolis, Ind.).

human H3 receptor [2] = biological target: T1, human H3 receptor; test: H3 receptor binding; conditions: cloned human H3 receptor stably expressed in SK-N-MC cells
Rat SERT = biological target: T2, Rat SERT (Rattus norvegicus, UniProt P31652); test: Rat brain SERT [3H]-citalopram binding; conditions: rat brain membranes, 0.6 nM [3H]-Citalopram, 60 min at 25° C.
T2 construct: A rat brain without cerebellum (Zivic Laboratories, Inc.—Pittsburgh, Pa.) was homogenized; tissue Zivic Laboratories, Inc; host or cells: rat brain without cerebellum, membrane preparation
T2 sequence (P31652 whole entry): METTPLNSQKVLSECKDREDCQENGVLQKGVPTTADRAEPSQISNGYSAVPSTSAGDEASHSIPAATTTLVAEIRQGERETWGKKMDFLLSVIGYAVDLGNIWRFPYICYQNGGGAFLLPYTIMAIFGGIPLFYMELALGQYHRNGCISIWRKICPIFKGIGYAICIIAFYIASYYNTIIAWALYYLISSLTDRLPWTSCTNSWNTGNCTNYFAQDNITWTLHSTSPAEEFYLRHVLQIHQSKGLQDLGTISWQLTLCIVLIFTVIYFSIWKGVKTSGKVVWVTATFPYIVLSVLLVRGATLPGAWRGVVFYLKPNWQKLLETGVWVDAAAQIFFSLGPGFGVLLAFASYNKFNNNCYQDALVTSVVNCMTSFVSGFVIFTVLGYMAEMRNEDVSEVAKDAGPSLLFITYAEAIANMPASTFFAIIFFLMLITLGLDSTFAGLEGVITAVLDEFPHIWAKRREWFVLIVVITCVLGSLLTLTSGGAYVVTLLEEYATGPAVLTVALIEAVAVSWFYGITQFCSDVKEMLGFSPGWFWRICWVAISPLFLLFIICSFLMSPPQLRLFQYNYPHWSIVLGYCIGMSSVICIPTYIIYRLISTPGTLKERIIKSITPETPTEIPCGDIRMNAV
Description: The supernatant was removed and re-centrifuged at 15,000 rpm for 30 min. […] Membranes were incubated with 0.6 nM [^3H]-Citalopram plus/minus test compounds for 60 min at 25° C. and harvested by rapid filtration over GF/C glass fiber filters (pretreated with 0.3% polyethylenimine) followed by four washes with ice-cold buffer.

human SERT = biological target: T3, human SERT (Homo sapiens, UniProt P31645); test: Human SERT 3H-citalopram binding; conditions: HEK293 membranes expressing the human SERT, rt 1 h
T3 construct: expressed in transfected cells; host or cells: HEK293 membranes
T3 sequence (P31645 whole entry): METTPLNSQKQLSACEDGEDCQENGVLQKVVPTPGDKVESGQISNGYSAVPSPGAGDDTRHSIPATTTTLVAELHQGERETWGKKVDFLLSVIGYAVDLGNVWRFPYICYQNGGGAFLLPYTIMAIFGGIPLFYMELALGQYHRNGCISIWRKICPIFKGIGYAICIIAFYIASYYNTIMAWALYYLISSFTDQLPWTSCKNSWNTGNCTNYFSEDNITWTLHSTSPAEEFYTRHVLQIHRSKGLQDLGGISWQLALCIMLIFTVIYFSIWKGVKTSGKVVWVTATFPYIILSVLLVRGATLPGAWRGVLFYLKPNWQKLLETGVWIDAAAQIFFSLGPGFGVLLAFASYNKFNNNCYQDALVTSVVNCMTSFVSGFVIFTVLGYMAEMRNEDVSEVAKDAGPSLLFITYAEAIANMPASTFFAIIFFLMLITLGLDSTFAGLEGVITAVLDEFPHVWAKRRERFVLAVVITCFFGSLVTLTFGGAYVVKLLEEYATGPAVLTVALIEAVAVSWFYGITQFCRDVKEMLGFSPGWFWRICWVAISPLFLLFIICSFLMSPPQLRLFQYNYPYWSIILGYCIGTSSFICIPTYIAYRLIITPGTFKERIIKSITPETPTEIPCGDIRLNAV
Description: Homogenized HEK293 (Human Embryonic Kidney) membranes expressing the human SERT were incubated with ^3H-citalopram (SERT) at rt for 1 h in 50 mM Tris, 120 mM NaCl, 5 mM KCl (pH 7.4). […] The membranes were washed and the radioactivity was counted as above.

| Kb (human H3 receptor [1]) [nM] | Compound | pA2 (human H3 receptor [1]) | Ki (human H3 receptor [2]) [nM] | Ki (Rat SERT) [nM] | Ki (human SERT) [nM] |
| --- | --- | --- | --- | --- | --- |
| – | CNCc1cc(C#CCCN2CCOCC2)ccc1Oc1ccc(C(F)(F)F)cc1 [Example 7, Methyl-[5-(4-morpholin-4-yl-but-1-ynyl)-2-(4-trifluoromethyl-phenoxy)-benzyl]-amine] | 7.90 | 7.3 | 2 | 2.7 |
| – | CNCc1cc(C#CCCN2CCOCC2)ccc1Oc1cccc(F)c1 [Example 8, [2-(3-Fluoro-phenoxy)-5-(4-morpholin-4-yl-but-1-ynyl)-benzyl]-methyl-amine] | 8.45 | 3 | 10 | 24 |
| – | CNCc1cc(C#CCCN2CCC(F)CC2)ccc1Oc1ccc(SC)cc1 [Example 11, [5-[4-(4-Fluoro-piperidin-1-yl)-but-1-ynyl]-2-(4-methylsulfanyl-phenoxy)-benzyl]-methyl-amine] | 8.12 | 6 | 0.6 | 0.9 |
| – | CNCc1cc(C#CCCN2CCOCC2)ccc1Oc1cccc(Cl)c1 [Example 12, [2-(3-Chloro-phenoxy)-5-(4-morpholin-4-yl-but-1-ynyl)-benzyl]-methyl-amine] | 8.58 | 3 | 3 | 7.3 |
| – | CNCc1cc(C#CCCN(C)C2CC2)ccc1Oc1ccc(SC)cc1 [Example 16, Cyclopropyl-methyl-{4-[3-methylaminomethyl-4-(4-methylsulfanyl-phenoxy)-phenyl]-but-3-ynyl}-amine] | 9.10 | 6.1 | 1.3 | 1.1 |
| 0.251 | C(#Cc1ccc(Oc2cccnc2)c(CNC2CC2)c1)CCN1CCOCC1 [Example 23, Cyclopropyl-[5-(4-morpholin-4-yl-but-1-ynyl)-2-(pyridine-3-yloxy)-benzyl]-amine] | – | 0.7 | 18 | 58 |
| – | CNCc1cc(C#CCCN2CCOCC2)ccc1Oc1ccc(Cl)c(C(F)(F)F)c1 [Example 27, [2-(4-Chloro-3-trifluoromethyl-phenoxy)-5-(4-morpholin-4-yl-but-1-ynyl)-benzyl]-methyl-amine] | 7.89 | 13 | 7.3 | 17 |
| – | CNCc1cc(C#CCCN2CCOCC2)ccc1Oc1ccc(F)cc1Cl [Example 28, [2-(2-Chloro-4-fluoro-phenoxy)-5-(4-morpholin-4-yl-but-1-ynyl)-benzyl]-methyl-amine] | 8.78 | 6 | 3.4 | 3.6 |
| 3.16 | CNCc1cc(C#CCCN2CCOCC2)ccc1Oc1ccccn1 [Example 30, Methyl-[5-(4-morpholin-4-yl-but-1-ynyl)-2-(pyridine-2-yloxy)-benzyl]-amine] | – | 6 | 200 | – |
